Assay results reported in ChEMBL document CHEMBL5726007, “Therapeutic compounds and uses thereof” (2018).

Target: T1, Bromodomain-containing protein 9 (Homo sapiens, UniProt Q9H8M2)
T1 sequence (Q9H8M2 whole entry): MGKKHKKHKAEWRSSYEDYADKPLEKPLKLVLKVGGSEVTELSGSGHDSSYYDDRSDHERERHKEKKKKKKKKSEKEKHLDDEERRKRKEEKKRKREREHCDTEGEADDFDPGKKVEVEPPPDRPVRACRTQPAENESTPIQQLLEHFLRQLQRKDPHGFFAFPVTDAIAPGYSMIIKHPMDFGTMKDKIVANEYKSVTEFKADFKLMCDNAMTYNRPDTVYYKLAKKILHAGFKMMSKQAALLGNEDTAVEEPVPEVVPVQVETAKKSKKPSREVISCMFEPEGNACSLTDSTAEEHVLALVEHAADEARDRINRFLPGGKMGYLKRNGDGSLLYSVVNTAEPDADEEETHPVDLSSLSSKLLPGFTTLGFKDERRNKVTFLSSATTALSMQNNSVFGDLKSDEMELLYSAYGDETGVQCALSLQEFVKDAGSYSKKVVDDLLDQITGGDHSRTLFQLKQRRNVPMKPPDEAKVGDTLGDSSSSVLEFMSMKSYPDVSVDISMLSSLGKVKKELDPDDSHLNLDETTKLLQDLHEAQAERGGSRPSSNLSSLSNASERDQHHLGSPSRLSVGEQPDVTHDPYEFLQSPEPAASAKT
Assay: After 20 minutes incubation at room temperature AlphaLisa Streptavidin Acceptor Beads (Perkin-AL125C) and AlphaLisa Nickel donor beads (Perkin AS 10 ID) were added to a final concentration of 15 ug/mL each.

## CC(C)n1cc(-c2ccc(C(C)(C)O)cc2)c2cc[nH]c2c1=O
  IC50: 4.1 µM
